Measurements as given in patent US10525044B2, “Treatment for chemotherapy-induced peripheral neuropathy” (priority 2013, dated 2020).
“Also recorded” adds a separate entry of the source.

Legend:
[1] = system: mixed cortical and striatal neurons; experiment: LDH assay (cell membrane integrity) in neuronal cell culture; type: cell-based; conditions: MTX 100 μM, 5-FU 25 μM, CDDP 3.5 μM; for LDH increase in culture supernatant (cell membrane leakage): neurons in 25% AO; for LDH increase in culture supernatant (cell membrane leakage) / morphological changes, LDH release, or MTS reduction: 3 days; for morphological changes, LDH release, or MTS reduction: neurons in 100% or 50% AOs, data not shown; for increase in LDH reading: neurons, FIG. 2(b)
Protocol: (§1) Neuronal Cell Culture. Mixed cortical and striatal neurons fromembryonic day 17 male Sprague-Dawley rats (tissue obtained from NIH) were seeded into poly-D-lysine coated 96-well plates at density of 50,000 cells/well and initially cultured at 37° C., 5% CO2, in neurobasal medium (NB) with B27 supplement (Invitrogen) containing full strength of AOs to obtain highly enriched (95%) neurons. Since AOs, including vitamin E, vitamin E acetate, superoxide dismutase (SOD), catalase (CAT), and GSH, are additives to culture medium, reduction of AO concentration in culture medium provides an approach to determine the level of OS involvement in a neurotoxic process. In our study, the culture medium was replaced at a 50% ratio with NB plus B27 minus AOs twice at days 7 and 9 to set AO concentrations as 50% and 25%, respectively. At 16 days in vitro (d.i.v.), a fraction of the culture medium was harvested for lactate dehydrogenase (LDH) assay, and then AO concentration was reduced to 12.5% and cultured for a further 5 hours prior to ending the experiment.
(§2) Cell Insults and Treatments. Determination of concentration for each anticancer drug in our experiments was based on its reported concentration in human cerebral spinal fluid (CSF) in chemotherapy, literature report of its neurotoxicity in culture, and our preliminary in vitro experimental data. At 13 d.i.v., the neuronal cell cultures were insulted with 100 μM of MTX (M9929, Sigma), 25 μM of 5-FU (F6627, Sigma), or 3.5 μM of CDDP (sc-200896, Santa Cruz) for 3 days in absence or presence of PAN 811.Cl.H2O. For ROS examination, the neurons were insulted with both 100 μM of MTX and 25 μM of 5-FU by 15 d.i.v. PAN-811.Cl.H2O was added to cultures to final concentrations of 1.25, 2.5, 5, and 10 μM at the same time as addition of the anticancer drugs. For cancer cell lines, the cells were insulted by the second day of cell seeding with the same concentration of MTX, 5-FU, or CDDP as used in neuronal culture in the absence or presence of 10 μM PAN-811.Cl.H2O for another 3 days.
(§3) Quantitative Assays and Morphological Assessment. Cell membrane integrity and mitochondrial function of either neurons or cancer cells were measured with LDH and 3-(4,5-dimethylthiazol-2-yl)-5-(3-carboxymethoxyphenyl)-2-(4-sulfophenyl)-2H-tetrazolium [MTS] analyses, respectively. The latter has been used to quantify cell survival. For the LDH assay, a mixture of a 35 μL aliquot of culture supernatant and 17.5 μL of Mixed Substrate, Enzyme and Dye Solutions (Sigma) was incubated at room temperature (RT) for 30 minutes. For the MTS assay, 10 μL of MTS reagent (Promega) was added to a culture well containing neurons in 50 μL of medium. The preparations were incubated at 37° C. for 2 hours. The preparations for both assays were then spectrophotometrically measured at 490 nm using a 96-well plate reader (Mode 550, Bio-Rad). Neuronal cell death was morphologically determined based on the integrity of the cell soma and continuity of neuronal processes. The change in number of cancer cells was judged directly by cell density. Cells were photographed under an inverted phase contrast microscope (IX 70, Olympus) using 10× or 20× objective.
(§4) Data Analysis. Data were generated from 4-6 replicate wells, expressed as mean±standard deviation (SD), and statistically evaluated at a significance level of 1% with one factor ANOVA or Student's t-test by using software VASSARSTATS (http://vassarstats.net/) followed by the Tukey HSD test. Figure symbols are as follows: #, P<0.05, and ##, P<0.01, compared with control; *, P<0.05, and **, P<0.01, compared with the insulted group; §§, P<0.01, compared with PAN-811 treated group by Student's t-test.

[2] = system: mixed cortical and striatal neurons; experiment: MTS assay (cell viability) in neuronal cell culture; type: cell-based; conditions: MTX 100 μM, 5-FU 25 μM, CDDP 3.5 μM; for reduction of MTS reading / effect on MTS reading (in words): neurons in 12.5% AO; for effect on MTS reading (in words): FIG. 2(c); for change in MTS level: neurons in 25% AO, 3 days, data not shown
Protocol: as §1, §2, §3, §4

[3] = system: mouse liver cancer cell line BNLT3; experiment: MTS assay in BNLT3 cancer cells; type: cell-based; conditions: each agent alone, 3 days: MTX 100 μM, 5-FU 25 μM, CDDP 3.5 μM, PAN-811 10 μM
Protocol: (§5) Cancer Cell Culture. The mouse liver cancer cell line BNLT3 (gift of Dr. Jack Wands, Brown University) and the human lung cancer cell line H460 (ATCC) were seeded into 96-well plates at a density of 4,000 cells/well and cultured at 37° C., 5% CO2, in DMEM (11965, Gibco) supplemented with 10% fetal bovine serum, 20 mM HEPES, 1 mM sodium pyruvate, and […] gentamycin (all reagents came from Gibco).
as §2, §3, §4

[4] = system: human lung cancer cell line H460; experiment: MTS assay in H460 cancer cells; type: cell-based; conditions: each agent alone, 3 days: MTX 100 μM, 5-FU 25 μM, CDDP 3.5 μM, PAN-811 10 μM
Protocol: as §5, §2, §3, §4

[5] = system: human lung cancer cell line H460; experiment: LDH assay (membrane integrity) in H460 cancer cells; type: cell-based; conditions: each agent alone, 3 days: MTX 100 μM, 5-FU 25 μM, CDDP 3.5 μM, PAN-811 10 μM
Protocol: as §5
as §2, with “[…] […]” for “At 13 d.i.v., the neuronal cell cultures were insulted with 100 μM of MTX (M9929, Sigma), 25 μM of 5-FU (F6627, Sigma), or 3.5 μM of CDDP (sc-200896, Santa Cruz) for 3 days in absence or presence of PAN 811.Cl.H2O. For ROS examination, the neurons were insulted with both 100 μM of MTX and 25 μM of 5-FU by 15 d.i.v.”
as §3, §4

[6] = system: mixed cortical and striatal neurons; experiment: Morphological assessment of neuronal cell death; type: cell-based, Sprague-Dawley rats; conditions: MTX 100 μM, 5-FU 25 μM, CDDP 3.5 μM; for visible cell damage: neurons in 25% AO, 3 days; for neuronal cell death / loss of neurons (morphology): AO reduced to 12.5% for 5 hours at 16 d.i.v.
Protocol: as §1, §2, §3

[7] = system: mouse liver cancer cell line BNLT3; experiment: Cell density of BNLT3 cells (phase contrast); type: cell-based; conditions: each agent alone, 3 days: MTX 100 μM, 5-FU 25 μM, CDDP 3.5 μM, PAN-811 10 μM
Protocol: as §5, §2, §3

[8] = system: human lung cancer cell line H460; experiment: Cell density of H460 cells (phase contrast); type: cell-based; conditions: each agent alone, 3 days: MTX 100 μM, 5-FU 25 μM, CDDP 3.5 μM, PAN-811 10 μM
Protocol: as §5, §2, §3

[9] = system: TRPA1-dependent hypersensitivity; conditions: short-term systemic treatment before the cytotoxic drug (bortezomib or oxaliplatin); cited from earlier work
[10] = system: oxaliplatin-induced behavioral alterations; conditions: in vivo; cited from earlier work

SMILES	LDH increase in culture supernatant (cell membrane leakage) [1]	morphological changes, LDH release, or MTS reduction [1]	increase in LDH reading [1]	reduction of MTS reading [2]	effect on MTS reading (in words) [2]	change in MTS level [2]	reduction of MTS reading [3]	reduction of MTS reading [4]	increase in LDH reading in culture supernatant [5]	visible cell damage [6]	neuronal cell death / loss of neurons (morphology) [6]	cell density / cancer cell number [7]	cell density [8]	prevention of hypersensitivity [9]	antineuropathic effect on oxaliplatin-induced behavioral alterations [10]
O=c1[nH]cc(F)c(=O)[nH]1 [5-FU, fluorouracil]	significant LDH increase	neither MTX at 100 μM, 5-FU at 25 μM, nor CDDP at 3.5 μM caused morphological changes, LDH release, or MTS reduction	significant increases in LDH reading	27%	significant reduction in MTS readings	no change in MTS level was detectable	84%	57%	124%	no cell damage was visible	extensive neuronal cell death; also recorded: robust loss of neurons	significantly reduced the cell density	robustly decreased the cell density	–	–
[NH2][Pt]([NH2])([Cl])[Cl] [CDDP, cisplatin]	significant LDH increase	neither MTX at 100 μM, 5-FU at 25 μM, nor CDDP at 3.5 μM caused morphological changes, LDH release, or MTS reduction	significant increases in LDH reading	66%	significant reduction in MTS readings	no change in MTS level was detectable	44%	22%	71%	no cell damage was visible	extensive neuronal cell death; also recorded: robust loss of neurons	caused a decrease in the cell density	greatly decreased the cell density	–	–
CC(C)c1ccc(NC(=O)Cn2cnc3c2c(=O)n(C)c(=O)n3C)cc1 [HC-030031]	–	–	–	–	–	–	–	–	–	–	–	–	–	completely prevent hypersensitivity	–
CN(Cc1cnc2nc(N)nc(N)c2n1)c1ccc(C(=O)N[C@@H](CCC(=O)O)C(=O)O)cc1 [MTX, methotrexate]	significant LDH increase	neither MTX at 100 μM, 5-FU at 25 μM, nor CDDP at 3.5 μM caused morphological changes, LDH release, or MTS reduction	significant increases in LDH reading	–	did not elicit significant MTS reduction; also recorded: did not significantly affect the MTS reading	no change in MTS level was detectable	85%	67%	95%	no cell damage was visible	did not result in significant loss of cell number	severely reduced the cancer cell number	robustly decreased the cell density	–	–
O=C(O)CCCCC1CCSS1 (stereo not drawn) [α-lipoic acid]	–	–	–	–	–	–	–	–	–	–	–	–	–	completely prevent hypersensitivity	–
Cc1c(C)c2c(c(C)c1O)CC[C@@](C)(CCC[C@H](C)CCC[C@H](C)CCCC(C)C)O2 [α-tocopherol]	–	–	–	–	–	–	–	–	–	–	–	–	–	–	about 50%
